*1 amine or outer side, *2 acyl side, *3 side chain or, on linkers, in order; H or OH if unused. Where a SMILES comes first, the peptide text is derived from it. Bridges are numbered along the chain shown (N, C = ends). Roman numbers before positions name the chains, in order. [ ]: non-standard residue; d: D form. X1 = O=C(CCCCC(=O)[*:2])NCCCOCCOCCOCCCNC(=O)CCC(=O)[*:1]; NMeF = CN[C@@H](Cc1ccccc1)C(=O)O; NMeL = CN[C@@H](CC(C)C)C(=O)O; NMeV = CN[C@H](C(=O)O)C(C)C
Assays:
Sprague-Dawley rats = experiment: Sub-chronic toxicity, hematological and biochemical parameters; format: in vivo; settings: for Basophil / Total Bilirubin / Creatinine / Eosinophil / Monocyte / RBC / WBC / Serum Urea / SGPT / Lymphocyte / SGOT / Neutrophil / Glucose / ALP: iv, 42 days, n = 8; for Basophil: control 0.00±0.00; for Total Bilirubin: control 0.58±0.04; for Creatinine: control 0.73±0.02; for Eosinophil: control 3.12±0.61; for Monocyte: control 3.20±0.99; for RBC: control 4.77±1.54; for WBC: control 6.60±1.20; for Serum Urea: control 26±1.45; for SGPT: control 38.0±1.70; for Lymphocyte: control 38.2±3.25; for SGOT: control 52.0±2.21; for Neutrophil: control 56.6±2.31; for Glucose: control 103.0±1.34; for ALP: control 111.0±3.46
Procedure: (§1) The tabulated biochemical profile (novel biomarkers of the liver and kidney) corroborates the safety charms of SP1 for further in vivo studies.
(§2) 24 male Sprague Dawley rats were randomly divided into three groups: control, SP1A, and SP1B. Each group contains 8 animals and administration of SP1was performed for 42 days through a tail vein by the following schedule: Control: Without any treatment.
(§3) Rats were sacrificed after 42 days of injection schedule and blood was collected for hematological and biochemical estimations. For the histopathological study, the liver and kidney were also isolated very carefully and checked for cytoarchitectural changes if any.
(§4) The body weights and volumes of SP1 to be administered were recorded for each animal. Prior to injection, the tail of the animal was warmed by using warm water circulating pad placed under the cage for 5-10 minutes to dilate the veins. A 25-gauge needle was inserted into the vein towards the direction of the head. The needle and syringe were kept parallel to the tail. […]
µg/kg and 500 µg/kg) was injected into the tail slowly. The needle was removed very carefully and gentle compression applied until bleeding was stopped. Animals were returned to their home cage.
The biochemical parameters including blood glucose, serum urea, creatinine, total bilirubin, serum glutamic oxaloacetic transaminase (SGOT), serum glutamic pyruvic transaminase (SGPT), and alkaline phosphatase (ALP) were analyzed for sub-chronic toxicity of SP1by using commercially available diagnostic test kits (Crest Biosystems kits, India). Blood parameters like red blood cells, white blood cells, hemoglobin, neutrophil, lymphocyte, eosinophil, monocyte, and basophil were estimated using standard kits by following the manufacturer’s manual.

liver and kidney tissue = experiment: Sub-chronic toxicity, histopathology of liver and kidney; format: in vivo, Sprague-Dawley rats; settings: 100 and 500 μg kg−1, tail vein, once daily, 42 days, n = 8/group
Procedure: as §1, §2, §3, §4
The biochemical parameters including blood glucose, serum urea, creatinine, total bilirubin, serum glutamic oxaloacetic transaminase (SGOT), serum glutamic pyruvic transaminase (SGPT), and alkaline phosphatase (ALP) were analyzed for sub-chronic toxicity of SP1by using commercially available diagnostic test kits (Crest Biosystems kits, India). […]

SH-SY5Y cells = experiment: Intracellular ROS (DCFH-DA); format: cell-based, human; settings: Aβ40 10 μM, 24 h
Description: Condensed or fragmented nuclear bodies characterize the distinctive nature of apoptotic cells. […] Dyshomeostasis of Ca^2+ is also responsible for the increased production of Aβ peptides, by which a degenerative feed-forward cycle is activated, resulting in accelerated apoptosis, synaptic dysfunction, and memory impairment.[49]
The release of cytosolic enzyme lactate dehydrogenase (LDH) into the culture medium indicates cell death due to the disruption of membrane integrity. Cell deathwas assessed by measuring LDH release in the culture medium by photocolorimetric kit according to the manufacturer’s protocol (Abcam, Cambridge, MA, USA). […]
Next, 50 µl culture supernatant was collected from each well and added to an assay mixture that was prepared by adding an equal amount of LDH substrate, co-factors, and dye solutions and incubated in the dark for 40mins at 37°C. […] Absorbance was measured at 490 nm with a reference filter of 660nm. […]
Generation of intracellular reactive oxygen species was measured by a spectrofluorimetric method using peroxide sensitive fluorescent probe 2′,7′-Dichlorofluorescin diacetate (DCFH-DA).11 In brief, SH-SY5Y […]
or both for 24h. […] Cells were then washed twice with PBS, and fluorescent intensity was measured by using a fluorescence microplate reader (Bio Rad, CA, USA) with an excitation filter of 490 nm and an emission filter of 520 nm.

[1] = SP1 500 µg/kg, *P<0.01 vs control

With `CC(C)C[C@H](NC(=O)CNC(=O)CCC(=O)NCCCOCCOCCOCCCNC(=O)CCCCC(=O)NCC(=O)N(C)[C@@H](CC(C)C)C(=O)N[C@H](C(=O)N(C)[C@@H](Cc1ccccc1)C(=O)N[C@@H](Cc1ccccc1)C(=O)N[C@@H](C)C(N)=O)C(C)C)C(=O)N(C)[C@H](C(=O)N[C@@H](Cc1ccccc1)C(=O)N(C)[C@@H](Cc1ccccc1)C(=O)N[C@@H](C)C(N)=O)C(C)C` [SP1] (I: GL[NMeV]F[NMeF]A-NH2 / II: G[NMeL]V[NMeF]FA-NH2; linker I:N-II:N via X1) the “hematological and biochemical parameters, summary” value (Sprague-Dawley rats; 100 μg kg−1, 42 days) was “did not find any severe changes in the hematological and biochemical parameters”, the “hematological and biochemical parameters, summary” value (Sprague-Dawley rats; 500 μg kg−1, 42 days) was “Almost similar observations in rats treated with SP1 (500 μg kg^−1) were revealed, except for monocyte and SGOT levels” and the Basophil (Sprague-Dawley rats; SP1 100 µg/kg) was 0.00±0.00%. For the same compound, the “Total Bilirubin” value (Sprague-Dawley rats; SP1 100 µg/kg) was 0.54 ± 0.09 mg/dL, the Creatinine (Sprague-Dawley rats; SP1 100 µg/kg) was 0.69 ± 0.05 mg/dL and the Eosinophil (Sprague-Dawley rats; SP1 100 µg/kg) was 2.62±0.82%. The Monocyte (Sprague-Dawley rats; SP1 100 µg/kg) was 3.8±1.08%, the RBC (Sprague-Dawley rats; SP1 100 µg/kg) was 5.20±1.23 10^6/mm3 and the WBC (Sprague-Dawley rats; SP1 100 µg/kg) was 5.80±1.34 10^3/mm3. The “Serum Urea” value (Sprague-Dawley rats; SP1 100 µg/kg) was 32.0 ± 1.83 mg/dL, the SGPT (Sprague-Dawley rats; SP1 100 µg/kg) was 44.0±1.84 IU/L and the Lymphocyte (Sprague-Dawley rats; SP1 100 µg/kg) was 42.3±2.92%. The SGOT (Sprague-Dawley rats; SP1 100 µg/kg) was 55.0±2.94 IU/L, the Neutrophil (Sprague-Dawley rats; SP1 100 µg/kg) was 58.00±2.54% and the Glucose (Sprague-Dawley rats; SP1 100 µg/kg) was 110.0 ± 1.36 mg/dL. For the same compound, the ALP (Sprague-Dawley rats; SP1 100 µg/kg) was 120.0±3.68 IU/L, the Basophil (Sprague-Dawley rats; SP1 500 µg/kg) was 0.00±0.00% and the “Total Bilirubin” value (Sprague-Dawley rats; SP1 500 µg/kg) was 0.72 ± 0.06 mg/dL. It also gave a Creatinine (Sprague-Dawley rats; SP1 500 µg/kg) of 0.86 ± 0.03 mg/dL, an Eosinophil (Sprague-Dawley rats; SP1 500 µg/kg) of 2.72±0.53% and a Monocyte (Sprague-Dawley rats; [1]) of 5.20±1.24%. For the same compound, the RBC (Sprague-Dawley rats; SP1 500 µg/kg) was 5.51±1.38 10^6/mm3, the WBC (Sprague-Dawley rats; SP1 500 µg/kg) was 6.21±1.15 10^3/mm3 and the “Serum Urea” value (Sprague-Dawley rats; SP1 500 µg/kg) was 29.0 ± 1.66 mg/dL. It also gave an SGPT (Sprague-Dawley rats; SP1 500 µg/kg) of 40.32±1.63 IU/L, a Lymphocyte (Sprague-Dawley rats; SP1 500 µg/kg) of 40.5±3.12% and an SGOT (Sprague-Dawley rats; [1]) of 64.2±2.56 IU/L. It also gave a Neutrophil (Sprague-Dawley rats; SP1 500 µg/kg) of 62.10±2.42%, a Glucose (Sprague-Dawley rats; SP1 500 µg/kg) of 105.0 ± 1.28 mg/dL and an ALP (Sprague-Dawley rats; SP1 500 µg/kg) of 116.0±2.15 IU/L. The “cytoarchitectural changes in liver and kidney tissue” value (liver and kidney tissue) was “did not observe any cytoarchitectural changes in the liver and kidney tissue”.
“Aβ40: commercially available Aβ40 peptide” was tested, and the “ROS marker intensity, Aβ40 alone” value (SH-SY5Y cells) was “increased in the presence of Aβ40 compared to untreated cells”.

From PMC8179358, “An explicitly designed paratope of amyloid-β prevents neuronal apoptosis in vitro and hippocampal damage in rat brain” (Chemical Science, 2020)
